Measured values: patent US20030099674A1 (priority 2001, published 2003)
Like-named read-outs stand apart in the source and are kept apart here.

Tests used:
[1] = no lecithin, 24 hours at 25° C.
Experimental: The mixtures were agitated for 24 hours at 25° C., and were then filtered through a 0.2 micron filter.

[2] = Stability of paclitaxel in solutions containing oil and soy lecithin (HPLC purity); type: physicochemical
Experimental: The ethanol solution was mixed with the selected oil. […] The resulting oil solutions were sealed in glass vials and stored at 40° C. or at 60° C.

[3] = Paclitaxel emulsion stability study #2: effect of pH, dry vs liquid emulsions at 40° C.; type: physicochemical; details: pH 4.0 to 8.9, stored at 40° C., HPLC
Experimental: These tests were conducted to select optimal pH's for a dry paclitaxel emulsion.
The fine emulsion was divided into 5 portions. The pH of each portion was adjusted to pH 4.0, 5.6, 6.6, 7.8 or 8.9 using 0.2 N HCl or 0.2 N NaOH solution. Average droplet size of each pH adjusted emulsion was determined using LLS.
The stability evaluation included both dry and liquid emulsions (pre-lyophilization) at each pH. These emulsions were stored sealed in glass vials at 40° C.

[4] = in the dry emulsions of MCT or sesame oil at a storage temperature of 25° C. or below
Experimental: At each time point including the time 0, a vial was removed from each stability temperature chamber and reconstituted with 0.2 ml deionized water to reform the emulsion.
Along with the dry emulsion samples, the liquid emulsion samples (pre-lyophilization) were also included in this study. The liquid emulsions were stored at −20° C.

With `CC(=O)O[C@H]1C(=O)[C@@]2(C)[C@H]([C@H](OC(=O)c3ccccc3)[C@]3(O)C[C@H](OC(=O)[C@H](O)[C@@H](NC(=O)c4ccccc4)c4ccccc4)C(C)=C1C3(C)C)[C@]1(OC(C)=O)CO[C@@H]1C[C@@H]2O` [paclitaxel] the “Solubility at 25° C.” value ([1]; MCT oil (Miglyol 812N)) was 40 mg/g of oil, the “Solubility at 25° C.” value ([1]; Sesame oil) was 5 mg/g of oil and the “Purity (% paclitaxel peak area over total peak area) Day 0” value ([2]; Corn oil with soy lecithin) was 98.7 % paclitaxel peak area over total peak area. For the same compound, the “Purity (% paclitaxel peak area over total peak area) Day 0” value ([2]; Cottonseed oil with soy lecithin) was 98.8 % paclitaxel peak area over total peak area, the “Purity (% paclitaxel peak area over total peak area) Day 0” value ([2]; Ethyl oleate with soy lecithin) was 97.0 % paclitaxel peak area over total peak area and the “Purity (% paclitaxel peak area over total peak area) Day 0” value ([2]; Miglyol 812N with soy lecithin) was 99.3 % paclitaxel peak area over total peak area. The “Purity (% paclitaxel peak area over total peak area) Day 0” value ([2]; Safflower oil with soy lecithin) was 98.0 % paclitaxel peak area over total peak area, the “Purity (% paclitaxel peak area over total peak area) Day 0” value ([2]; Sesame oil + oleic acid, with soy lecithin) was 98.5 % paclitaxel peak area over total peak area and the “Purity (% paclitaxel peak area over total peak area) Day 0” value ([2]; Sesame oil + vit E, with soy lecithin) was 99.0 % paclitaxel peak area over total peak area. For the same compound, the “Purity (% paclitaxel peak area over total peak area) Day 0” value ([2]; Sesame oil + water, with soy lecithin) was 99.1 % paclitaxel peak area over total peak area, the “Purity (% paclitaxel peak area over total peak area) Day 0” value ([2]; Sesame oil with soy lecithin) was 99.0 % paclitaxel peak area over total peak area and the “Purity (% paclitaxel peak area over total peak area) Day 0” value ([2]; Sesame oil without soy lecithin) was 99.2 % paclitaxel peak area over total peak area. For the same compound, the “Purity (% paclitaxel peak area over total peak area) Day 0” value ([2]; Soybean oil with soy lecithin) was 99.4 % paclitaxel peak area over total peak area, the “Purity (% paclitaxel peak area over total peak area) Day 0” value ([2]; Vitamin E with soy lecithin) was 96.3 % paclitaxel peak area over total peak area and the “Stability of paclitaxel in dry versus liquid emulsions” value [3] was “more stable than in the liquid emulsions”. The “Time paclitaxel is chemically stable” value [4] was “at least 28 days”.
